Among the data in PubChem BioAssay (NCI) are TGI and GI50 values, retold here.

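Each compound was tested at five concentrations against cells in 96-well plates for 48 hours. At the GI50, growth is halved. Definition used: TGI = concentration required for complete inhibition of growth.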

Assay in all cases: NCI-60 cell line screen, 48 h
In experiment [1] the test system is SR leukemia.
In experiment [2] the test system is COLO 205 colon.
Experiment [3] concerns A498 renal.
Experiment [4] has as its system KM12 colon.
The subject of experiment [5] is HCT-15 colon.
In experiment [6] the test system is OVCAR-4 ovarian.
The subject of experiment [7] is ACHN renal.
The subject of experiment [8] is MDA-N.
The subject of experiment [9] is MOLT-4 leukemia.
In experiment [10] the test system is HCC-2998 colon.
Experiment [11] has as its system 786-0 renal.
Experiment [12] has as its system CAKI-1 renal.
The subject of experiment [13] is HL-60(TB) leukemia.
The test system of experiment [14] is M14 melanoma.

For `Cc1cccc(-n2c(C)nc3ccc(NC4OC(CO)C(O)C(O)C4O)cc3c2=O)c1` (stereo unspecified), the TGI in experiment [1], in [2], in [3], in [4], in experiment [5] and in experiment [6] was over 100 µM in each case. Besides, the TGI in experiment [7], in experiment [8], in experiment [9], in experiment [10], in [11] and in [12] was over 100 µM each time. In addition, the TGI in [13] is over 100 µM.

Regarding `COC(=O)Nc1nc2ccc(Oc3ccc4nc(NC(=O)OC)[nH]c4c3)cc2[nH]1`, the TGI is over 21.9 µM in experiment [1]; 7.59 µM in experiment [2]; over 51.4 µM in [3]; over 62.5 µM in [4]; over 100 µM in experiment [5]; over 100 µM in [6]. Moreover, the TGI is over 100 µM in experiment [7]; over 100 µM in experiment [8]; over 32.8 µM in experiment [9]; over 22.7 µM in experiment [10]; over 49.6 µM in experiment [11]; over 100 µM in experiment [12]. The TGI in [13] is 1.96 µM; in experiment [14], over 29.6 µM.

With `CSc1c(C#N)c(O)n(-c2ccc(C)cc2)c(=O)c1C#N`, the TGI in experiment [1], in [2], in [3], in experiment [4], in experiment [5] and in [6] was over 100 µM throughout. In addition, the TGI in [8], in [9], in experiment [10], in experiment [11], in experiment [12] and in [13] was over 100 µM each time. In [14], this molecule gave a TGI of over 100 µM.

As to `COc1cccc(/C(CC(O)(C(F)(F)F)C(F)(F)F)=N\N(C)C)c1`, the TGI in experiment [1], in [2], in experiment [3], in experiment [4], in experiment [5] and in experiment [6] was over 100 µM in each case. Further, the TGI in [7], in experiment [8], in [9], in experiment [10], in experiment [11] and in experiment [12] was over 100 µM each time. Further, the TGI in experiment [13] and in experiment [14] was over 100 µM each time.

Take `c1cc(-c2csc(-c3ccsc3)c2)cs1`: the TGI in [1], in [2], in experiment [3], in [4], in [5] and in [6] was over 100 µM throughout. The TGI in experiment [7], in experiment [8], in experiment [9], in [10], in experiment [11] and in experiment [12] was over 100 µM in each case. For the same molecule, the TGI in [13] and in experiment [14] was over 100 µM each time.

As for `CCCCC1Cc2ccccc2-c2n1c1ccccc1[n+]2C` (stereo unspecified), the TGI in experiment [1] is 58.5 µM; in experiment [3], over 100 µM; in experiment [4], over 100 µM; in [5], over 100 µM; in experiment [6], over 100 µM; in experiment [7], over 100 µM. In addition, the TGI is 64.5 µM in experiment [8]; 81.8 µM in experiment [9]; 48.3 µM in [10]; over 100 µM in experiment [11]; over 100 µM in experiment [12]; 22.9 µM in [13]. The same molecule returned a TGI in [14] of over 100 µM.

Regarding `CCOC(=O)N1CCN(c2c(C)nc(C)[nH]c2=O)CC1`, the TGI in experiment [1], in experiment [2], in experiment [3], in experiment [4], in [5] and in experiment [6] was over 100 µM each time. For the same molecule, the TGI in [7], in experiment [8], in experiment [9], in experiment [10], in [11] and in experiment [12] was over 100 µM each time. In addition, the TGI in [13] and in experiment [14] was over 100 µM throughout.

With `OC(CC(CC(O)(C(F)(F)Cl)C(F)(F)Cl)=NNc1ccccc1)(C(F)(F)Cl)C(F)(F)Cl`, the TGI in [1] is over 10 µM; in experiment [2], 3.51 µM; in [3], 6.72 µM; in experiment [4], 7.54 µM; in experiment [5] it was 9.16 µM; in experiment [6], over 10 µM. The TGI in [7] was 9.12 µM; in [8] it was 7.81 µM; in [9], over 10 µM; in [10], over 10 µM; in [11], over 10 µM; in [12] it was 6.43 µM. In addition, the TGI in [13] and in [14] was over 10 µM in each case.

Take `CO[C@H]1O[C@@H]2CO[C@@H](c3ccccc3)O[C@H]2[C@@H]2CC=CCC[C@]12O`: the TGI in experiment [1] was over 100 µM; in experiment [2] it was over 100 µM; in experiment [3], 92.7 µM; in [4], over 100 µM; in experiment [5] it was over 100 µM; in [6], over 100 µM. The TGI in experiment [7] is over 100 µM; in [8], over 100 µM; in experiment [9], 73.3 µM; in experiment [10], 51.7 µM; in [11] it was over 100 µM; in experiment [12] it was over 100 µM. For the same molecule, the TGI is 67 µM in experiment [13] and over 100 µM in experiment [14].

Take `COC(=O)c1ccccc1/C=C1/Cc2cccc(C)c2C1=O`: the TGI in experiment [1], in [2], in experiment [3], in experiment [4], in experiment [5] and in experiment [6] was over 100 µM throughout. The TGI in experiment [7], in experiment [8], in [9], in [10], in [11] and in experiment [12] was over 100 µM throughout. This molecule also came in with a TGI in [13] of over 100 µM.

Regarding `C[n+]1noc(/N=N\[O-])c1-c1cc(-c2c(/N=N\[O-])on[n+]2C)cc(-c2c(/N=N/[O-])on[n+]2C)c1`, the TGI in [1], in experiment [2], in [3], in experiment [4], in experiment [5] and in [6] was over 100 µM each time. Besides, the TGI in [7], in experiment [8], in experiment [9], in [10], in [11] and in experiment [12] was over 100 µM throughout. Besides, the TGI in [13] and in experiment [14] was over 100 µM throughout.

Turning to `C=CCN1C(=O)CC1N(CC=C)S(=O)(=O)c1ccc(C)cc1` (stereo unspecified), the TGI in experiment [1], in experiment [2], in [3], in experiment [4], in [5] and in experiment [6] was over 100 µM in each case. In addition, the TGI in experiment [7], in experiment [8], in [9], in [10], in experiment [11] and in experiment [12] was over 100 µM each time. Also, the TGI in experiment [13] and in experiment [14] was over 100 µM in each case.

For `COc1ccc(C2=C(Cl)c3cc(OC)c(OC)cc3C2=O)cc1OC`, the TGI in experiment [1] was over 100 µM; in [2], 16.2 µM; in experiment [3] it was 32 µM; in experiment [4], 32.2 µM; in [5], 20.7 µM; in experiment [6], 25.5 µM. The TGI was 17.2 µM in experiment [7]; 38.3 µM in experiment [8]; over 100 µM in experiment [9]; 38.9 µM in experiment [10]; 10.7 µM in experiment [11]; 4.24 µM in [12]. Moreover, the TGI in [13] was over 100 µM; in experiment [14], 18.1 µM.

Consider `C[C@]12CCC3c4ccc(O)cc4CC[C@H]3C1CC(=O)N(N)C2=O` (stereo partly specified), for which the TGI in experiment [1], in [2], in experiment [3], in experiment [4], in experiment [6] and in [7] was over 100 µM each time. Besides, the TGI in [8], in [9], in experiment [10], in [11], in experiment [12] and in experiment [13] was over 100 µM throughout. The molecule also registered a TGI in experiment [14] of over 100 µM.

Consider `CC1=C(C(=O)N[C@@H](Cc2ccccc2)C(=O)O)N2C(=O)[C@@H](NC(=O)[C@@H](N)CC(C)C)[C@H]2SC1`, for which the TGI in experiment [1], in experiment [2], in [3], in [4], in experiment [5] and in experiment [6] was over 100 µM each time. Also, the TGI in experiment [7], in experiment [8], in experiment [9], in experiment [10], in [11] and in experiment [12] was over 100 µM in each case. The TGI in experiment [13] and in [14] was over 100 µM in each case.

For `CN1CCC(CNC(=O)CCCCCCCCC(=O)NCC2(c3ccccc3)CCN(C)CC2)(c2ccccc2)CC1`, the TGI in experiment [1], in experiment [2], in experiment [3], in experiment [4], in experiment [5] and in experiment [6] was over 100 µM throughout. Further, the TGI in [7], in experiment [8], in [9], in experiment [10], in [11] and in [13] was over 100 µM in each case. Further, the TGI in [14] was over 100 µM.

For `O=C1CSC(/C=C/c2ccccc2)N1c1ccc(-c2ccc(-n3c(-c4ccccc4)nc4ccccc4c3=O)cc2)cc1` (stereo unspecified), the TGI in [1] is over 100 µM; in experiment [2] it was 36.6 µM; in [3] it was over 100 µM; in [4] it was 35.8 µM; in experiment [5], 66.8 µM; in experiment [6], 63 µM. The TGI is 94.9 µM in experiment [7]; 67.9 µM in experiment [8]; over 100 µM in [9]; over 100 µM in [10]; 29.6 µM in [11]; 88.7 µM in experiment [12]. Also, the values for the TGI in experiment [13] and in experiment [14] were over 100 µM and 35.4 µM, respectively.

With `CC(C)(C)OC(=O)NC1CC=CCC1NC(=O)OC(C)(C)C` (stereo unspecified), the TGI in experiment [1], in experiment [2], in experiment [3], in [4], in experiment [5] and in experiment [6] was over 100 µM in each case. The TGI in experiment [7], in experiment [8], in experiment [9], in experiment [10], in [11] and in experiment [12] was over 100 µM in each case. Further, the TGI in [13] and in [14] was over 100 µM throughout.

Take `NC(=O)c1cc(-c2ccc(-n3ccnc3)cc2)n[nH]c1=O`: the TGI in experiment [1], in [2], in experiment [3], in experiment [5], in experiment [6] and in experiment [7] was over 100 µM in each case. Moreover, the TGI in experiment [8], in experiment [9], in experiment [10], in experiment [11], in [12] and in [13] was over 100 µM each time. Further, in experiment [14], the TGI was over 100 µM.

For `FC(F)(F)c1nc2ccc(SSc3ccc4nc(C(F)(F)F)[nH]c4c3)cc2[nH]1`, the TGI in experiment [1], in [2], in experiment [3], in experiment [4], in experiment [5] and in [6] was over 100 µM throughout. Further, the TGI in [7], in [8], in experiment [9], in experiment [10], in experiment [11] and in experiment [12] was over 100 µM throughout. Further, the TGI in experiment [13] and in experiment [14] was over 100 µM each time. For the same molecule, the GI50 in [3], in experiment [4] and in experiment [12] was over 100 µM throughout.
